These are literature values, as cited in US8569304B2, “Active esters of N-substituted piperazine acetic acids, including isotopically enriched versions thereof” (DH Technologies Development Pte. Ltd., priority 2004, dated 2013).

For orientation: pKa means the negative logarithm of the acid dissociation constant.

The structures appear in SMILES notation.

The conditions of this series: alcohol (leaving group) used to form the trifluoroacetate ester / active ester.

As for `O=C1CCC(=O)N1O` [NHS, N-Hydroxysuccinimide], the pKa is recorded as 7.80.
